Read-outs that look alike come from different tables or passages of the source.
Assays:
human OCT3 = target: T1, human OCT3 (Homo sapiens, UniProt O75751); assay: SLC transporter substrate assay, HEK293-OCT3-LV vs control HEK293-Mock-LV cells; format: in vitro ADME
T1 construct: host or cells: HEK293-OCT3-LV
T1 sequence (O75751 1-556): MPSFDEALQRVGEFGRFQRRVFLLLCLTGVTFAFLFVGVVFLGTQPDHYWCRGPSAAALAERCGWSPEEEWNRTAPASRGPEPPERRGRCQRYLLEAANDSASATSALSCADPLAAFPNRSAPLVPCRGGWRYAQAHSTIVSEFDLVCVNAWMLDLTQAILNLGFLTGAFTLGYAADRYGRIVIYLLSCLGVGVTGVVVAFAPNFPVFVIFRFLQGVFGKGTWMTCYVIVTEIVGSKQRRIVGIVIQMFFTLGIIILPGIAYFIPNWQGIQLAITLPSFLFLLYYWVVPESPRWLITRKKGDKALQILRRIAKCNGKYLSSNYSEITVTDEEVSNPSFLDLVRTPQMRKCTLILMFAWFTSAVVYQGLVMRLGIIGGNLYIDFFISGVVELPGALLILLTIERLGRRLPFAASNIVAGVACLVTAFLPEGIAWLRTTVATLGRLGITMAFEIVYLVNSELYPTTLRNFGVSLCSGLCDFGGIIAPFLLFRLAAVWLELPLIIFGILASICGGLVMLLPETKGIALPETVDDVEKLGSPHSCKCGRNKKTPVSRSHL
Experimental: (§1) SI4. Results of transporter substrate assays (SLC)
Human Incubation Positive control substrate/ Control Special Incubation Assay […]
(Cell line) at 37°C [min] [h] […]
into transfected and control cells.
(§2) Fold accumulation = UPTTRP
PSMA-617 in SLC transporters.
NA: not analyzed. Test substances were considered as substrates in case of fold accumulation values > 2 combined with inhibition values higher than 50%.
4.7 Organic cation transporter OCT3
(HEK293-OCT3-LV) and control cells (HEK293-Mock-LV) applying 2- and 20-minute incubation periods, measured in SLC transporter substrate assay. […] Concentrations are nominal.
Table S16: ([α,β-3H]Nal)Lu-PSMA-617-accumulation in OCT3 transporter-expressing (HEK293-OCT3-LV) and control […]
Conditions Accumulation (pmol/mg protein)
Compound Nominal In OCT3 Fold concentration Minutes transporter In control Active accumulation
[µM] expressing cells transport
Positive control (accumulation in cpm)
MPP +: 1-methyl -4-phenylpyridinium.

MDR1 = MDR1 (Homo sapiens, UniProt P08183); conditions: for Relative inhibition / ATP dependent transport / Relative ATP dependent transport: NMQ probe; for ATP dependent transport / Relative ATP dependent transport: mean (n=3) ± SD
Chain of MDR1 (P08183 whole entry): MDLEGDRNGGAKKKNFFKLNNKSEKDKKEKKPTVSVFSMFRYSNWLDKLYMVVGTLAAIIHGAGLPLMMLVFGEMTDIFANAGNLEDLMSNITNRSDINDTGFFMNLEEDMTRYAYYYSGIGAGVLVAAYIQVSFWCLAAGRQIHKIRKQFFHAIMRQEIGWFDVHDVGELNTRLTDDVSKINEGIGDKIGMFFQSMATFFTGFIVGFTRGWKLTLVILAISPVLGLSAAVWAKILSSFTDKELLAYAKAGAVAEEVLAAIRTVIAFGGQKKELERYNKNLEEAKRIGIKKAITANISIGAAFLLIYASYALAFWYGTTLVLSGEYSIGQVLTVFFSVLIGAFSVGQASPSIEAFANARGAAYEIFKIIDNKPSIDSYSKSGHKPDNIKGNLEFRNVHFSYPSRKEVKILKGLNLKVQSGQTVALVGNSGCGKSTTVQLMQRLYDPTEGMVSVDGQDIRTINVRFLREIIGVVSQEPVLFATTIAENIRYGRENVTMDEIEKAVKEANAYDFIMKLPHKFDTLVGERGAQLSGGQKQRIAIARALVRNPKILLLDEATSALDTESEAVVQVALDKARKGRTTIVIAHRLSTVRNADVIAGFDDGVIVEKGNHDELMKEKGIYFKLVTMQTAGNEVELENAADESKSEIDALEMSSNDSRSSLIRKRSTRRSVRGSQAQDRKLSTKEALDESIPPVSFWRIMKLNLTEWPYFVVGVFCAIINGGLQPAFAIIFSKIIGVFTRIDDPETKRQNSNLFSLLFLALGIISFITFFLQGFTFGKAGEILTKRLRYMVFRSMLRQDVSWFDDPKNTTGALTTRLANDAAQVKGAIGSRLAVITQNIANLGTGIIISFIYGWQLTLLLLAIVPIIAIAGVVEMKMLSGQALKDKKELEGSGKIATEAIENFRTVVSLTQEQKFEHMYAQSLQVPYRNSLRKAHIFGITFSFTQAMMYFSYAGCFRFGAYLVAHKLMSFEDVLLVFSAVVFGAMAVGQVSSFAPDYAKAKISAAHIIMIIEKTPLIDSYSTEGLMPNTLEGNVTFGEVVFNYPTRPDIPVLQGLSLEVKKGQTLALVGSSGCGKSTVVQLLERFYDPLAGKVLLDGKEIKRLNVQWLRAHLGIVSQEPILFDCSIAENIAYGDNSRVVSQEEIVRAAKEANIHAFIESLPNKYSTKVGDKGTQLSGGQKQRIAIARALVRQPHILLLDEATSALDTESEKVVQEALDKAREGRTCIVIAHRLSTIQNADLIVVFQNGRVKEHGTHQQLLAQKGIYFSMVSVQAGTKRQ

human MATE2-K = human MATE2-K (Homo sapiens, UniProt Q86VL8); assay: SLC transporter substrate assay, MDCKII-MATE2K-Fin vs control MDCKII-CAT-Fin cells
Chain of human MATE2-K (Q86VL8 1-566 isoform Q86VL8-3): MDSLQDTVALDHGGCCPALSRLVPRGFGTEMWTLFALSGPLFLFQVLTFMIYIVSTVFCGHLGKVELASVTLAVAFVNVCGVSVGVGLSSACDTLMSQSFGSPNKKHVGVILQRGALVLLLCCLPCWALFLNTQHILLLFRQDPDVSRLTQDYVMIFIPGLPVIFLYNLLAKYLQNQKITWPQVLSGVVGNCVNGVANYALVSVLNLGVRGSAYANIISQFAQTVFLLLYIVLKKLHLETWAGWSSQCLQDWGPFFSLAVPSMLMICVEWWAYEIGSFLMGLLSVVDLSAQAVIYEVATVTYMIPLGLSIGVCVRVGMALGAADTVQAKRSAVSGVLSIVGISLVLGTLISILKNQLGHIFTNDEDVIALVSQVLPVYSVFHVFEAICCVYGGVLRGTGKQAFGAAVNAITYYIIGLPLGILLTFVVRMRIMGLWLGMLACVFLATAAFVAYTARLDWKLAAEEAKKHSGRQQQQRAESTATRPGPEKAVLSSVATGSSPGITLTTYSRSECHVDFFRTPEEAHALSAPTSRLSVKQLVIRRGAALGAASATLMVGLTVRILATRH
Experimental: The described cells were plated onto standard 24-well tissue culture plates at densities of 5 × 10^5 cells/well. […] Before starting the experiment, the cells were prepared by removing the medium and washing the cells twice with 300 µL of assay buffer. […] The cells were lysed by adding 300 µL of 0.1N NaOH, they were incubated for 10 min at 37 °C and 100 µL samples were taken from all the wells.
The amount of protein in each well was quantified using the BCA kit for protein determination (Sigma-Aldrich, St Louis, MO, USA). Positive controls were performed using a separate 96-well plate format according to Table S8 in SI4.
as §1
Table S8: Parameters of positive controls, control cell lines and plating for SLC transporters assays.
KH: Krebs-Henseleit buffer, HBSS: Hank's balanced salt solution, MES: 2 -(N-morpholino) ethanesulfonic acid, cGMP:
Guanosine cyclic phosphate, E3S: Estrone -3-sulfate, Gly-Sar: Glycylsarcosine, MPP+: 1-methyl-4-phenylpyridinium.
Calculation of fold accumulation values for SLC transporter substrate assays The fold accumulation value was defined as the ratio of uptake of the test substance (TS) or probe substrate into transfected and control cells. If the fold accumulation is > 2 and can be inhibited by a known inhibitor of the transporter, the test substance can be considered as a substrate of the respective transporter.
as §2
• UPTTRP: accumulated amount of test substance (TS) or probe substrate in transfected cells normalized by protein content […]
• UPTCTRL: accumulated amount of test substance (TS) or probe substrate in control cells normalized by protein content […]
4.2 Multidrug and toxin extrusion protein MATE2-K
(MDCKII-MATE2K-Fin) and control cells (MDCKII-CAT-Fin) applying 2- and 20-minute incubation periods, measured in SLC transporter substrate assay. […] Concentrations are nominal. […]
and control cells (MDCKII-CAT-Fin) applying 2- and 20-minute incubation periods, measured in SLC transporter […]
Compound Nominal In MATE2-K Fold

SMILES: [3H]C(c1ccc2ccccc2c1)C([3H])(NC(=O)C1CCC(CNC(=O)CN2CCN(CC(=O)[O-])CCN(CC(=O)[O-])CCN(CC(=O)[O-])CC2)CC1)C(=O)NCCCCC(NC(=O)NC(CCC(=O)O)C(=O)O)C(=O)O.[Lu+3] (stereo not drawn) [([α,β-^3H]Nal)Lu-PSMA-617]
- Accumulation in OCT3 transporter expressing cells (human OCT3; 0.03 µM nominal, 2 min): 0.026 ± 0.005 pmol/mg protein
- Accumulation in control cells (human OCT3; 0.03 µM nominal, 2 min): 0.022 ± 0.002 pmol/mg protein
- Accumulation, active transport (human OCT3; 0.03 µM nominal, 2 min): 0.003 ± 0.005 pmol/mg protein
- Fold accumulation (human OCT3; 0.03 µM nominal, 2 min): 1.15
- Accumulation in OCT3 transporter expressing cells (human OCT3; 0.03 µM nominal, 20 min): 0.041 ± 0.004 pmol/mg protein
- Accumulation in control cells (human OCT3; 0.03 µM nominal, 20 min): 0.032 ± 0.005 pmol/mg protein
- Accumulation, active transport (human OCT3; 0.03 µM nominal, 20 min): 0.009 ± 0.006 pmol/mg protein
- Fold accumulation (human OCT3; 0.03 µM nominal, 20 min): 1.29
- Accumulation in OCT3 transporter expressing cells (human OCT3; 0.30 µM nominal, 2 min): 0.351 ± 0.047 pmol/mg protein
- Accumulation in control cells (human OCT3; 0.30 µM nominal, 2 min): 0.277 ± 0.047 pmol/mg protein
- Accumulation, active transport (human OCT3; 0.30 µM nominal, 2 min): 0.074 ± 0.067 pmol/mg protein
- Fold accumulation (human OCT3; 0.30 µM nominal, 2 min): 1.27
- Accumulation in OCT3 transporter expressing cells (human OCT3; 0.30 µM nominal, 20 min): 0.446 ± 0.098 pmol/mg protein
- Accumulation in control cells (human OCT3; 0.30 µM nominal, 20 min): 0.332 ± 0.047 pmol/mg protein
- Accumulation, active transport (human OCT3; 0.30 µM nominal, 20 min): 0.113 ± 0.109 pmol/mg protein
- Fold accumulation (human OCT3; 0.30 µM nominal, 20 min): 1.34
- Substrate assessment (OCT3) (human OCT3; 0.03, 0.30 µM, 2, 20 min): no in vitro substrate
- Max. transporter-specific fold accumulation, without inhibitor (human OCT3; 20 min, 0.3 µM): 1.34
- Inhibitor assessment (MDR1) (MDR1; 0.30 and 3.00 µM, inhibition >20% defined as significant): no inhibitor
- Relative inhibition (MDR1; test substance 0.30 µM nominal): 8%
- ATP dependent transport (MDR1; test substance 0.30 µM nominal): 4902.67 ± 183.91 pmol/mg/min
- Relative ATP dependent transport (MDR1; test substance 0.30 µM nominal): 91.93 ± 3.56 % of control
- Relative inhibition (MDR1; test substance 3.00 µM nominal): -5%
- ATP dependent transport (MDR1; test substance 3.00 µM nominal): 5625.67 ± 230.64 pmol/mg/min
- Relative ATP dependent transport (MDR1; test substance 3.00 µM nominal): 105.48 ± 4.44 % of control
- Accumulation in MATE2-K transporter expressing cells (human MATE2-K; 0.03 µM nominal, 2 min): 0.06 ± 0.01 pmol/mg protein
- Accumulation in control cells (human MATE2-K; 0.03 µM nominal, 2 min): 0.11 ± 0.01 pmol/mg protein
- Accumulation, active transport (human MATE2-K; 0.03 µM nominal, 2 min): -0.05 ± 0.02 pmol/mg protein
- Fold accumulation (human MATE2-K; 0.03 µM nominal, 2 min): 0.54
- Accumulation in MATE2-K transporter expressing cells (human MATE2-K; 0.03 µM nominal, 20 min): 0.10 ± 0.01 pmol/mg protein
- Accumulation in control cells (human MATE2-K; 0.03 µM nominal, 20 min): 0.16 ± 0.01 pmol/mg protein
- Accumulation, active transport (human MATE2-K; 0.03 µM nominal, 20 min): -0.07 ± 0.01 pmol/mg protein
- Fold accumulation (human MATE2-K; 0.03 µM nominal, 20 min): 0.59
- Accumulation in MATE2-K transporter expressing cells (human MATE2-K; 0.30 µM nominal, 2 min): 0.64 ± 0.14 pmol/mg protein
- Accumulation in control cells (human MATE2-K; 0.30 µM nominal, 2 min): 0.59 ± 0.04 pmol/mg protein
- Accumulation, active transport (human MATE2-K; 0.30 µM nominal, 2 min): 0.05 ± 0.15 pmol/mg protein
- Fold accumulation (human MATE2-K; 0.30 µM nominal, 2 min): 1.08
- Accumulation in MATE2-K transporter expressing cells (human MATE2-K; 0.30 µM nominal, 20 min): 0.91 ± 0.13 pmol/mg protein
- Accumulation in control cells (human MATE2-K; 0.30 µM nominal, 20 min): 0.97 ± 0.07 pmol/mg protein
- Accumulation, active transport (human MATE2-K; 0.30 µM nominal, 20 min): -0.06 ± 0.15 pmol/mg protein
- Fold accumulation (human MATE2-K; 0.30 µM nominal, 20 min): 0.94
- Substrate assessment (MATE2-K) (human MATE2-K; 0.03, 0.30 µM, 2, 20 min): no in vitro substrate
- Max. transporter-specific fold accumulation, without inhibitor (human MATE2-K; 2 min, 0.3 µM): 1.08
